Measured values: US20240270821A1, “GIP/GLP1/GCG TRI-RECEPTOR AGONISTS AND USES THEREOF” (priority 2023, published 2024)
Like-named read-outs stand apart in the source and are kept apart here. Starred links: 1 amine or outer side, 2 acyl side, 3 side chain; linkers in the order of their positions; H or OH if unused. Non-standard residues stand in square brackets, D forms with d. Residues, ends and D or L forms follow the SMILES beside them. Groups on a side chain read outwards from the residue. No end group written: not given here. *: point of attachment. C20 diacid = O=C(O)CCCCCCCCCCCCCCCCCCC(=O)*; C18 diacid = O=C(O)CCCCCCCCCCCCCCCCC(=O)*; αMePhe(2-F) = C[C@](N)(Cc1ccccc1F)C(=O)O; γGlu = O=C(O)[C@H](CCC(=O)[*:2])N[*:1]; αMe4Pal = C[C@](N)(Cc1ccncc1)C(=O)O; αMeY = C[C@](N)(Cc1ccc(O)cc1)C(=O)O; 4Pal = N[C@@H](Cc1ccncc1)C(=O)O; αMeL = CC(C)C[C@](C)(N)C(=O)O; αMeS = C[C@](N)(CO)C(=O)O; Orn = NCCC[C@H](N)C(=O)O; Dap = NC[C@H](N)C(=O)O; AEEA = NCCOCCOCC(=O)O; Aib = CC(C)(N)C(=O)O

Legend:
Format in all cases: cell-based
hGIPR [1] = biological target: T1, hGIPR (Homo sapiens, UniProt P48546); assay: Functional cAMP activity in the presence of 1% HSA; conditions: read-out: cAMP Rel EC50, hGIPR
T1 sequence (P48546 22-466): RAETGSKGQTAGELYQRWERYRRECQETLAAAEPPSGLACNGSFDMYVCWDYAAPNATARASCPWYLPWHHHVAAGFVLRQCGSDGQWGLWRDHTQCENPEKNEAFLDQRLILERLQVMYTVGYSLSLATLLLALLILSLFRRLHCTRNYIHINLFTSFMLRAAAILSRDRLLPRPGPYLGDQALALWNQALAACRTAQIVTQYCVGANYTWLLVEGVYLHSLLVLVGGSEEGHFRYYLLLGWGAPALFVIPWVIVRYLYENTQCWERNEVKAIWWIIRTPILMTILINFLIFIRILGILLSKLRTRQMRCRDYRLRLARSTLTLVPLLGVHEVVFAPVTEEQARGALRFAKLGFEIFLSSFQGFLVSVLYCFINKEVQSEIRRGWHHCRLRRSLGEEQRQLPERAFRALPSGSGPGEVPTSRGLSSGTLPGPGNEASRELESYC

hGLP-1R [2] = biological target: T2, hGLP-1R (Homo sapiens, UniProt P43220); assay: Functional cAMP activity in the presence of 1% HSA; conditions: read-out: cAMP Rel EC50, hGLP-1R
T2 sequence (P43220 24-463): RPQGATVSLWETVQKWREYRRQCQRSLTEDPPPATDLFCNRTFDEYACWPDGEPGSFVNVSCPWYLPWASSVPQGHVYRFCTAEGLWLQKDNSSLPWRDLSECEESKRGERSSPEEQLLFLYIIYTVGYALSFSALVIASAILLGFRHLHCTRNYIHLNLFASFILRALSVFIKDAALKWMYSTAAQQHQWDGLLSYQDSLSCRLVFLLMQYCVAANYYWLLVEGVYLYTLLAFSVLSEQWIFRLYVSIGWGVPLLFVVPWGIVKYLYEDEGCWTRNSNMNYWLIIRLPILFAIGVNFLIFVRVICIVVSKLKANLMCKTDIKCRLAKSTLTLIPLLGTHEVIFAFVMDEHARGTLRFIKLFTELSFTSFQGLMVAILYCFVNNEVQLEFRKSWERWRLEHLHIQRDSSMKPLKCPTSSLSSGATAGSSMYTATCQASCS

human GcgR = human GcgR (Homo sapiens, UniProt P47871); assay: Functional cAMP activity in the presence of 1% HSA; conditions: read-out: cAMP Rel EC50, hGcgR
human GcgR, sequence (P47871 26-477): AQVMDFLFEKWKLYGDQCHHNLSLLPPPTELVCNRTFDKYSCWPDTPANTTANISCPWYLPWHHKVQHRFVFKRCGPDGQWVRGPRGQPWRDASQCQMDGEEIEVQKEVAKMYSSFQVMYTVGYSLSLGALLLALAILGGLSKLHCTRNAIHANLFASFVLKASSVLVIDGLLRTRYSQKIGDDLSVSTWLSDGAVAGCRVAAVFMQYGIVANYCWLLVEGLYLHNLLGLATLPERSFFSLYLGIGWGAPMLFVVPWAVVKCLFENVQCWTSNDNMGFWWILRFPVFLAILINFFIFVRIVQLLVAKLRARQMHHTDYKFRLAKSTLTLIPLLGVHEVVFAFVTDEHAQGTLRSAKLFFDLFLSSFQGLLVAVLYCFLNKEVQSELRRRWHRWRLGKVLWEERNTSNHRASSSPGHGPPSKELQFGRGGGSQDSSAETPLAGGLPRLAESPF

hGIPR [3] = biological target: T1, hGIPR; assay: Functional cAMP activation in the presence of 0.1% casein (no HSA); conditions: read-out: Relative cAMP EC50, hGIPR;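 as to Relative cAMP EC50, hGIPR: intracellular cAMP rise after 30 min at 37 °C read by HTRF against a standard curve, scaled between buffer alone (0%) and top control ligand concentration (100%), four-parameter fit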;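 as to Relative cAMP EC50, hGLP-1R: intracellular cAMP rise after 30 min at 37 °C read by HTRF, normalized between buffer only (0%) and maximal control ligand (100%), four-parameter variable-slope fit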;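 as to Relative cAMP EC50, hGcgR: intracellular cAMP rise after 30 min at 37 °C, read by HTRF against a cAMP standard curve, scaled from buffer only (0%) to maximal control ligand response (100%)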
hGLP-1R [4] = biological target: T2, hGLP-1R; assay: as above; conditions: read-out: Relative cAMP EC50, hGLP-1R
hGcgR = hGcgR (Homo sapiens, UniProt P47871); assay: as above; conditions: read-out: Relative cAMP EC50, hGcgR;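 also: intracellular cAMP rise after 30 min at 37 °C, read by HTRF against a cAMP standard curve, scaled from buffer only (0%) to maximal control ligand response (100%)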
hGcgR, sequence (P47871 26-477): as above

[5] = HEK-293 clonal cell line, 1% HSA, geometric mean of relative EC50
[6] = in the presence of 0.1% casein (no HSA), geometric mean of relative EC50
[7] = in the presence of 0.1% casein (no HSA), geometric mean
[8] = HEK-293 clonal cell line, in the presence of 1% HSA, geometric mean of relative EC50

| Molecule | EC50 (hGIPR [1]) [nM] | EC50 (hGLP-1R [2]) [nM] | EC50 (human GcgR) [nM] | EC50 (hGIPR [3]) [nM] | EC50 (hGLP-1R [4]) [nM] | EC50 (hGcgR) [nM] | EC50 (hGIPR [3]; [7]) [nM] | EC50 (hGLP-1R [4]; [7]) [nM] | EC50 (hGcgR; [7]) [nM] | also measured |
| --- | --- | --- | --- | --- | --- | --- | --- | --- | --- | --- |
| H-Y[Aib]QGT[αMePhe(2-F)]TSD[4Pal]SI[αMeL]LDKK([γGlu-γGlu-C18 diacid])AQ[Aib]AFIEYLEEGGPSSGEPPPSGSEE-NH2 [Example 630] |  |  |  |  |  |  |  |  |  | EC50 (hGIPR [1]; [5]): 2.96 nM; EC50 (hGLP-1R [2]; [5]): 74.5 nM; EC50 (human GcgR; [5]): 872 nM; EC50 (hGIPR [3]; [6]): 0.0233 nM; EC50 (hGLP-1R [4]; [6]): 0.762 nM; EC50 (hGcgR; [6]): 8.07 nM |
| H-Y[Aib]QGTFTSD[4Pal]SQ[αMeL]LDKK([γGlu-γGlu-C18 diacid])AQ[αMe4Pal]AFIEYLIE[Aib]GPSSGAPPPSGTGE-NH2 [Example 1127] |  |  |  |  |  |  | 0.167 | 6.16 | 5.95 | EC50 (hGIPR [1]; [8]): 7.72 nM; EC50 (hGLP-1R [2]; [8]): 234 nM; EC50 (human GcgR; [8]): 425 nM |
| H-Y[Aib]QGT[αMePhe(2-F)]TSDYSILLDKK([AEEA-γGlu-C18 diacid])AQ[Aib]AFIEYLEEGGPSSGAPPPEEG-NH2 [Example 399] | 19.6 | 42.8 | 560 | 0.0413 | 0.302 | 1.51 |  |  |  |  |
| H-Y[Aib]QGTFTSDFS[Dap][αMeL]LDKK([AEEA-γGlu-C18 diacid])AQ[Aib]AFIEYLIE[Aib]GPSSGAPPPSGS-NH2 [Example 800] | 40.2 | 164 | 2500 |  |  |  | 0.283 | 0.486 | 21 |  |
| H-Y[Aib]QGTFTSD[4Pal]SQ[αMeL]LDKK([γGlu-γGlu-C18 diacid])AQ[αMe4Pal]AFIEYLLAGGPSSGAPPPSGSEE-NH2 [Example 1036] | 13 | 1080 | 353 |  |  |  | 0.114 | 6.87 | 2.05 |  |
| H-Y[Aib]QGTFTSD[4Pal]SQ[αMeL]LD[Orn]K([AEEA-γGlu-C18 diacid])AQ[Aib]AFIE[αMeY]LIEGGPSSGAPPPSGS-NH2 [Example 850] | 27 | 57.8 | 3660 |  |  |  | 0.346 | 0.451 | 28.4 |  |
| H-Y[Aib]QGTFTSDFS[Orn][αMeL]LD[Orn]K([γGlu-γGlu-C18 diacid])AQ[Aib]AFIE[αMeY]LLEGGPSSGAPPPGGSEE-NH2 [Example 1049] |  |  |  |  |  |  | 0.24 | 2.23 | 6.33 | EC50 (hGIPR [1]; [8]): 56.2 nM; EC50 (hGLP-1R [2]; [8]): 780 nM; EC50 (human GcgR; [8]): 1280 nM |

The next lines start with results.

| EC50 (hGIPR [1]) [nM] | EC50 (hGLP-1R [2]) [nM] | EC50 (human GcgR) [nM] | EC50 (hGIPR [3]) [nM] | EC50 (hGLP-1R [4]) [nM] | EC50 (hGcgR) [nM] | Molecule | EC50 (hGIPR [3]; [7]) [nM] | EC50 (hGLP-1R [4]; [7]) [nM] | EC50 (hGcgR; [7]) [nM] | also measured |
| --- | --- | --- | --- | --- | --- | --- | --- | --- | --- | --- |
| 16.9 | 26.9 | 188 | 0.0872 | 0.421 | 1.76 | CC[C@H](C)[C@H](NC(=O)[C@H](Cc1ccccc1)NC(=O)[C@H](CCCN)NC(=O)C(C)(C)NC(=O)[C@H](CCC(N)=O)NC(=O)[C@H](C)NC(=O)[C@H](CCCCNC(=O)CC[C@H](NC(=O)CC[C@H](NC(=O)CCCCCCCCCCCCCCCCC(=O)O)C(=O)O)C(=O)O)NC(=O)[C@H](CCCN)NC(=O)[C@H](CC(=O)O)NC(=O)[C@H](CC(C)C)NC(=O)[C@](C)(CC(C)C)NC(=O)[C@@H](NC(=O)[C@](C)(CO)NC(=O)[C@H](Cc1ccncc1)NC(=O)[C@H](CC(=O)O)NC(=O)[C@H](CO)NC(=O)[C@@H](NC(=O)[C@](C)(Cc1ccccc1F)NC(=O)[C@@H](NC(=O)CNC(=O)[C@H](CCC(N)=O)NC(=O)C(C)(C)NC(=O)[C@@H](N)Cc1ccc(O)cc1)[C@@H](C)O)[C@@H](C)O)[C@@H](C)CC)C(=O)N[C@H](CCC(=O)O)C(=O)N[C@@](C)(Cc1ccc(O)cc1)C(=O)N[C@@H](CC(C)C)C(=O)N[C@@H](C)C(=O)N[C@@H](CCC(=O)O)C(=O)NCC(=O)NCC(=O)N1CCC[C@H]1C(=O)N[C@@H](CO)C(=O)N[C@@H](CO)C(=O)NCC(=O)N[C@@H](CCC(=O)O)C(=O)N1CCC[C@H]1C(=O)N1CCC[C@H]1C(=O)N1CCC[C@H]1C(=O)N[C@@H](CCC(=O)O)C(N)=O [Example 437] (H-Y[Aib]QGT[αMePhe(2-F)]TSD[4Pal][αMeS]I[αMeL]LD[Orn]K([γGlu-γGlu-C18 diacid])AQ[Aib][Orn]FI[dE][αMeY]LAEGGPSSGEPPPE-NH2) |  |  |  |  |
| 72.3 | 464 | 1180 |  |  |  | Y[Aib]QGTFTSDFSK[αMeL]LDKK([AEEA-γGlu-C20 diacid])AQ[Aib]AFIQYLLAGGPSSGEPPPSEG-NH2 [Example 27] | 0.41 | 2.33 | 8.91 |  |
| 7.83 | 230 | 506 |  |  |  | H-Y[Aib]QGTFTSD[4Pal]SQ[αMeL]LD[Orn]K([γGlu-γGlu-C18 diacid])AQ[αMe4Pal]AFIEYLIA[Aib]GPSSGEPPPSGSEE-NH2 [Example 1092] | 0.0648 | 1.33 | 3.45 |  |
| 1.02 | 21.6 | 188 | 0.0123 | 0.255 | 3.22 | Y[Aib]QGT[αMePhe(2-F)]TSD[4Pal]SI[αMeL]LD[Orn]K([AEEA-γGlu-C18 diacid])AQ[αMe4Pal][Orn]FI[dE][αMeY]LIEGGPSSGEPPPEGTE-NH2 [Example 679] |  |  |  |  |
| 0.751 | 49.6 | 182 |  |  |  | H-Y[Aib]QGT[αMePhe(2-F)]TSD[4Pal][αMeS]I[αMeL]LD[Orn]K([AEEA-γGlu-C18 diacid])AQ[αMe4Pal]EFI[dE][αMeY]LIEGGPSSGEPPPTGE-NH2 [Example 1143] | 0.0087 | 0.381 | 1.42 |  |
| 2.51 | 12 | 131 | 0.0171 | 0.194 | 1.53 | CC[C@H](C)[C@H](NC(=O)[C@H](CC(C)C)NC(=O)[C@](C)(Cc1ccc(O)cc1)NC(=O)[C@@H](CCC(=O)O)NC(=O)[C@@H](NC(=O)[C@H](Cc1ccccc1)NC(=O)[C@H](CCCN)NC(=O)C(C)(C)NC(=O)[C@H](CCC(N)=O)NC(=O)[C@H](C)NC(=O)[C@H](CCCCNC(=O)COCCOCCNC(=O)CC[C@H](NC(=O)CCCCCCCCCCCCCCCCC(=O)O)C(=O)O)NC(=O)[C@H](CCCN)NC(=O)[C@H](CC(=O)O)NC(=O)[C@H](CC(C)C)NC(=O)[C@](C)(CC(C)C)NC(=O)[C@@H](NC(=O)[C@](C)(CO)NC(=O)[C@H](Cc1ccncc1)NC(=O)[C@H](CC(=O)O)NC(=O)[C@H](CO)NC(=O)[C@@H](NC(=O)[C@](C)(Cc1ccccc1F)NC(=O)[C@@H](NC(=O)CNC(=O)[C@H](CCC(N)=O)NC(=O)C(C)(C)NC(=O)[C@@H](N)Cc1ccc(O)cc1)[C@@H](C)O)[C@@H](C)O)[C@@H](C)CC)[C@@H](C)CC)C(=O)N[C@@H](CCC(=O)O)C(=O)NCC(=O)NCC(=O)N1CCC[C@H]1C(=O)N[C@@H](CO)C(=O)N[C@@H](CO)C(=O)NCC(=O)N[C@@H](CCC(=O)O)C(=O)N1CCC[C@H]1C(=O)N[C@@H](CCC(=O)O)C(=O)N1CCC[C@H]1C(=O)N[C@@H](CCC(=O)O)C(N)=O [Example 461] (H-Y[Aib]QGT[αMePhe(2-F)]TSD[4Pal][αMeS]I[αMeL]LD[Orn]K([AEEA-γGlu-C18 diacid])AQ[Aib][Orn]FI[dE][αMeY]LIEGGPSSGEPEPE-NH2) |  |  |  |  |
| 1.3 | 38.1 | 230 | 0.0132 | 0.417 | 2.08 | H-Y[Aib]QGT[αMePhe(2-F)]TSD[4Pal][αMeS]I[αMeL]LD[Orn]K([AEEA-γGlu-C18 diacid])AQ[αMe4Pal]EFI[dE][αMeY]LVEGGPSSGEPPPSGTGE-NH2 [Example 734] |  |  |  |  |
